Remaining activity data for 4 compounds are collected here from article PMC6757289, “Design and Characterization of SGK3-PROTAC1, an Isoform Specific SGK3 Kinase PROTAC Degrader” (ACS Chemical Biology, 2019).

Experiment in all cases: kinase profiling panel
Type in all cases: biochemical
Common to all, as to conditions: read-out: % Activity Remaining

The target in one test is PKA (Homo sapiens, UniProt P17612). An excerpt: (§1) Protein kinase profiling against a Dundee panel of 140 protein kinases was undertaken at the International Centre for Protein Kinase Profiling. The result for each kinase was presented as a mean kinase activity of the reaction taken in triplicate relative to a control sample treated with DMSO. Assay conditions and abbreviations are available at http://www.kinase-screen.mrc.ac.uk.

The target in a further test is T1, PDK1 (Homo sapiens, UniProt O15530).
T1 sequence (O15530 1-556): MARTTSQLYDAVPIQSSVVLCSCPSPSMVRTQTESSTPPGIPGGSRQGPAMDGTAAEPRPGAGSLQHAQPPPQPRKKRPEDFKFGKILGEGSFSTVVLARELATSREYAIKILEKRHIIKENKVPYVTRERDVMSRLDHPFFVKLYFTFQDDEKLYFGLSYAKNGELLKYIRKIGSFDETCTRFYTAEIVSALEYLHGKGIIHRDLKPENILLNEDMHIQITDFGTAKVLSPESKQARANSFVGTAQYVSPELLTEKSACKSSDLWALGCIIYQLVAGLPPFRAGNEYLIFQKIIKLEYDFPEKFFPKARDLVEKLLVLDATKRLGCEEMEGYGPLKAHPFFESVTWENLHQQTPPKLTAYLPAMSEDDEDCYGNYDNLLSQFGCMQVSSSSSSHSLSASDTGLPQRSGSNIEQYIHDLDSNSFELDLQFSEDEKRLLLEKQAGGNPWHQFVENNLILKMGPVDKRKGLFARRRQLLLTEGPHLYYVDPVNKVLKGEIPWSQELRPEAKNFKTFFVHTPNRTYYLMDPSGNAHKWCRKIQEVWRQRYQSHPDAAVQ
Source text: as §1

Another test has as its target T2, TLK1 (Homo sapiens, UniProt Q9UKI8).
T2 sequence (Q9UKI8 1-766): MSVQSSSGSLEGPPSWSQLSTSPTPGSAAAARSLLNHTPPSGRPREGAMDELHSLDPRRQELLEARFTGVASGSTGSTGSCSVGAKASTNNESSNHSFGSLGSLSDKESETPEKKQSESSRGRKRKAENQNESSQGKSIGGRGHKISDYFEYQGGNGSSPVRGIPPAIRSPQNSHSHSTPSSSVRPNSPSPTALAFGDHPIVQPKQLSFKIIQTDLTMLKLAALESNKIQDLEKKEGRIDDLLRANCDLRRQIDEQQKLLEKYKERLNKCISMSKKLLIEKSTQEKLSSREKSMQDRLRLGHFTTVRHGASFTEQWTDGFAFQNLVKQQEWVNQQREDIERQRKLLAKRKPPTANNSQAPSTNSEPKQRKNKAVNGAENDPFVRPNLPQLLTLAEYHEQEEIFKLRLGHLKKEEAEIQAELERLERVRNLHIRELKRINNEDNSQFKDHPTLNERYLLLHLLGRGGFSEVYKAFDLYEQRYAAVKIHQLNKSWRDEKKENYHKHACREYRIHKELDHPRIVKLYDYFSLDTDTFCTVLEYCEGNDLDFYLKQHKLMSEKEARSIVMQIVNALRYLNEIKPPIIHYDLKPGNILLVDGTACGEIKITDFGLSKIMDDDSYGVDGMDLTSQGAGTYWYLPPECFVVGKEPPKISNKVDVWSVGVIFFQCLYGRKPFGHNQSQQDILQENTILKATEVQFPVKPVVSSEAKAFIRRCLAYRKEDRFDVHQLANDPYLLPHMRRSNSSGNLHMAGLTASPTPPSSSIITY
Source text: as §1

The next test deals with CHK2 (Homo sapiens, UniProt O96017).
Source text: as §1

In a further test the target is TTBK2 (Homo sapiens, UniProt Q6IQ55).
Source text: as §1

The next test addresses PKC gamma (Homo sapiens, UniProt P05129).
Source text: as §1

A further test has as its target T3, ASK1 (Homo sapiens, UniProt Q99683).
T3 sequence (Q99683 1-1374): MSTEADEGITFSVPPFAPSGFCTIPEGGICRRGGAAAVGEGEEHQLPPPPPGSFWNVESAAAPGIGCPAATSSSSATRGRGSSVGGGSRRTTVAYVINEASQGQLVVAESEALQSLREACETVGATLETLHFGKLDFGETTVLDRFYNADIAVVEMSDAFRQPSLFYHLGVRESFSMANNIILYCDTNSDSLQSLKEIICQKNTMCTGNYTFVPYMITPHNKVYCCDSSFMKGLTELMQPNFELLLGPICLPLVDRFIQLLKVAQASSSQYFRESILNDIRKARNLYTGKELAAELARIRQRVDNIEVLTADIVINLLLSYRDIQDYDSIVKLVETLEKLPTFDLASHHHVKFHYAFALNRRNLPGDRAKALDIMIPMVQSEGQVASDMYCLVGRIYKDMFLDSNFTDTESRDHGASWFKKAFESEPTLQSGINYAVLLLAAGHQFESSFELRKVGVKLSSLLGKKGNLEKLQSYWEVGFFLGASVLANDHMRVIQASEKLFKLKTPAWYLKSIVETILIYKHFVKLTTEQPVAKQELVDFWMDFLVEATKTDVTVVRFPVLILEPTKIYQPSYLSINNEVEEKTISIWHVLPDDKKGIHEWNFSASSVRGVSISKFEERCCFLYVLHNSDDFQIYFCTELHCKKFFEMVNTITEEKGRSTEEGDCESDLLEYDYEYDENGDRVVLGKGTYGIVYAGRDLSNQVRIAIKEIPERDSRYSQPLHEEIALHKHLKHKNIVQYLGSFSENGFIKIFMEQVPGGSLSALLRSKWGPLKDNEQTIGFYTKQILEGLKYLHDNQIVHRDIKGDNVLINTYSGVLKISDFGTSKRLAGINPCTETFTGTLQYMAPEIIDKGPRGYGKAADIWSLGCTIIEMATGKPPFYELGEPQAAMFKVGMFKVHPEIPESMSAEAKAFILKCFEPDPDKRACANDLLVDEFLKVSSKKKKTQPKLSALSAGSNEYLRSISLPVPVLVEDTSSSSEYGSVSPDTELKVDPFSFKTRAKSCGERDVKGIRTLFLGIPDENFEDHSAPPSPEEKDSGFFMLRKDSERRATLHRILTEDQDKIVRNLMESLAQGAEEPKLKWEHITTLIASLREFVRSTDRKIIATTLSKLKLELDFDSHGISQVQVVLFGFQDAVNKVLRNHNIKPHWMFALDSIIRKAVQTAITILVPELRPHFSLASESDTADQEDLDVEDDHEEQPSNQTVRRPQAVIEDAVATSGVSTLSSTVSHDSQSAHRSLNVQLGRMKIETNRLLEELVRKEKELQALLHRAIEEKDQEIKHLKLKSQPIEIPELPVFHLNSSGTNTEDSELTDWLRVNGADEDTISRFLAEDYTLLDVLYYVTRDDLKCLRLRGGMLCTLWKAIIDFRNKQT
Source text: as §1

Broadly, the remaining activity is the signal under treatment as a percentage of the control signal.

Read-outs that look alike come from different tables or passages of the source.

Sequence of TTBK2 (Q6IQ55 whole entry): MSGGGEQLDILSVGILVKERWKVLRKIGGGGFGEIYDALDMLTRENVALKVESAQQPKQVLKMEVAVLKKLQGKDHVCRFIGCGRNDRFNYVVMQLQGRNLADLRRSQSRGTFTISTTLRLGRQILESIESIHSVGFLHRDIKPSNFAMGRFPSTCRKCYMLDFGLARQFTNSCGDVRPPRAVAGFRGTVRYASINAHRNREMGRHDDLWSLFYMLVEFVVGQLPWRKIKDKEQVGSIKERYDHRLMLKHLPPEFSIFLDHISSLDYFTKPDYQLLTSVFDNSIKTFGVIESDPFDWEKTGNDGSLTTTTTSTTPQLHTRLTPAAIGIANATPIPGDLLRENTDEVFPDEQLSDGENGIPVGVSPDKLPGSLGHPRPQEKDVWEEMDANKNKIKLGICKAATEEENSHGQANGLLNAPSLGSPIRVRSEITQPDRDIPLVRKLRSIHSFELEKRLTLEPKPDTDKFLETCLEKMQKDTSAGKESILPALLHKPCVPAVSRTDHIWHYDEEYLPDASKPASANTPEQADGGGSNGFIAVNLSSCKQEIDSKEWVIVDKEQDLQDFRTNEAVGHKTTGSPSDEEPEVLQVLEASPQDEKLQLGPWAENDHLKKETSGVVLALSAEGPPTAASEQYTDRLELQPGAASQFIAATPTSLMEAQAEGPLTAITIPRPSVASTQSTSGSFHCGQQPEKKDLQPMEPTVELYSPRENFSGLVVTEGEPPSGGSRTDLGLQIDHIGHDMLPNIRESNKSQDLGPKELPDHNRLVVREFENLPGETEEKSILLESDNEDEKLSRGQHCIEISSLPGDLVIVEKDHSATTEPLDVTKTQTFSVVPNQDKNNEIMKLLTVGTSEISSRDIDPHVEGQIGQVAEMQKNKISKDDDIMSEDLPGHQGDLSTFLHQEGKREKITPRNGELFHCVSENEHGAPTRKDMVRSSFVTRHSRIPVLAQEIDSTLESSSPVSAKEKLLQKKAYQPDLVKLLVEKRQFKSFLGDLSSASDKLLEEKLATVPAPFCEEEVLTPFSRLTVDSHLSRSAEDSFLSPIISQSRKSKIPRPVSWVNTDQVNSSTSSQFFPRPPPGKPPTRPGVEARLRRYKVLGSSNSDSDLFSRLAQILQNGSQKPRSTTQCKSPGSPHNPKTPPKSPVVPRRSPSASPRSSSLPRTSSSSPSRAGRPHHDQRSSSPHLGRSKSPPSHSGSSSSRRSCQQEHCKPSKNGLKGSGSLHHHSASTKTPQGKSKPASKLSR
Sequence of CHK2 (O96017 whole entry): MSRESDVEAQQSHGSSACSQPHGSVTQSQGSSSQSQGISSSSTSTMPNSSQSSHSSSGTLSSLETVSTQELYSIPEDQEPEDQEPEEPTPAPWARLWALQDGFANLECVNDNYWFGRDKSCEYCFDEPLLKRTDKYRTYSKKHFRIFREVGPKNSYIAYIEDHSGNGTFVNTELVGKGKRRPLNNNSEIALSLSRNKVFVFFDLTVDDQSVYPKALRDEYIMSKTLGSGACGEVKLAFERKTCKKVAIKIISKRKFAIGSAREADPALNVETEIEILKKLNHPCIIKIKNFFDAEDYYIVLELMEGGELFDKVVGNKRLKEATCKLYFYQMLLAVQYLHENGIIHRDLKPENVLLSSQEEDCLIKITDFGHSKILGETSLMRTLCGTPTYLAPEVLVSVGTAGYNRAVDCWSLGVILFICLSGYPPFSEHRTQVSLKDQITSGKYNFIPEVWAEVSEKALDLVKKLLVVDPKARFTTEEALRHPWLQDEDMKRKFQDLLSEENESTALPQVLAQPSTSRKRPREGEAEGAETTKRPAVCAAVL

On to `COc1ccc(Cl)c(S(=O)(=O)Nc2ccc(-c3nc(OC[C@H]4CNCCO4)c4c(C)n[nH]c4n3)cc2)c1` [290-R, reference compound], for which the remaining activity at 1 µM on PKA amounted to 85%; at PDK1, 117%; on TLK1, 89%; on CHK2 it was 9%; at TTBK2 it was 114%; on PKC gamma, 101%. Also, the remaining activity at 1 µM on ASK1 turned out to be 104%.
With `Cc1ccc(F)c(S(=O)(=O)Nc2ccc(-c3nc(OC[C@H]4CNCCO4)c4cn[nH]c4n3)cc2)c1` [308-R, reference compound], the remaining activity at 1 µM turned out to be 106% on PKA; 88% at PDK1; 108% at TLK1; 24% at CHK2; 87% on TTBK2; 90% on PKC gamma. Also, the remaining activity at 1 µM on ASK1 amounted to 87%.
For the compound `Cc1ccc(F)c(S(=O)(=O)Nc2ccc(-c3nc(OC[C@H]4CN(CCCCCCOCCOCCOCC(=O)N[C@H](C(=O)N5C[C@H](O)C[C@H]5C(=O)NCc5ccc(-c6scnc6C)cc5)C(C)(C)C)CCO4)c4cn[nH]c4n3)cc2)c1` [SGK3-PROTAC1], the remaining activity at 1 µM at PKA (1 µM) was found to be 108%; on PDK1 (1 µM), 99%; at TLK1 (1 µM), 102%; on CHK2 (1 µM) it was 85%; on TTBK2 (1 µM), 94%; on PKC gamma (1 µM) it was 103%. Moreover, at ASK1 (1 µM), the remaining activity at 1 µM turned out to be 113%.
In the case of `Cc1ccc(F)c(S(=O)(=O)Nc2ccc(-c3nc(OC[C@H]4CN(CCCCCCOCCOCCOCC(=O)N[C@H](C(=O)N5C[C@@H](O)C[C@H]5C(=O)NCc5ccc(-c6scnc6C)cc5)C(C)(C)C)CCO4)c4cn[nH]c4n3)cc2)c1` [cisSGK3-PROTAC1], the remaining activity at 1 µM at PKA (1 µM) stood at 111%; at PDK1 (1 µM), 87%; on TLK1 (1 µM), 109%; at CHK2 (1 µM) it was 99%; on TTBK2 (1 µM), 90%; on PKC gamma (1 µM) it was 100%. For the same compound, the remaining activity at 1 µM at ASK1 (1 µM) amounted to 102%.
